PMC8448819, “The Arabidopsis MIK2 receptor elicits immunity by sensing a conserved signature from phytocytokines and microbes” (Nature Communications, 2021)
No end group written: not given here.

How the values were obtained:
[1] = In vitro protein cleavage assay and LC-MS/MS; assay type: biochemical, Arabidopsis thaliana
Protocol: Recombinant HIS-SCOOP12 proteins were expressed in E. coli BL21 strain with an isopropyl β-D-1-thiogalactopyranoside (IPTG)-inducible system and purified with Ni-NTA agarose (QIAGEN, #166048536) in buffer containing 50 mM Tris-HCl pH 7.5 and 300 mM NaCl. For in vitro protein cleavage assay, 5 μg of purified HIS-SCOOP12 proteins were incubated with 10 μL protein extracts isolated from 10-day-old Arabidopsis WT seedlings or protein extraction buffer (50 mM HEPES, pH 7.4, 10 mM EDTA, and 1× protease inhibitor cocktail, Sigma) following a published protocol[36] for 5 h at room temperature with rotation. […] The processed SCOOP12 bands were cut from SDS-PAGE for LC-MS/MS analysis.
The processed SCOOP12 bands were in-gel digested following a published protocol, except that digestion was conducted with Lys-C (Promega, Madison, WI, USA). The digested peptides were desalted using micro ZipTip mini-reverse phase (Millipore). In brief, after wetting (with 50% acetonitrile) and equilibrating a ZipTip (with 0.1% formic acid), the peptides were bound to C-18 material. A subsequent washing step with 0.1% formic acid was followed by a final elution with 60% acetonitrile and 0.1% formic acid. The samples were lyophilized to dryness using a labconco speedvac (Centrivap, Labconco Inc., USA). The resulting peptides were resuspended in 0.1% formic acid for mass spectrometric analysis. The mass spectrometry data acquisition was performed on an EASY-nLC 1200 ultraperformance liquid chromatography system (Thermo Scientific Inc., San Jose, CA) connected to an Orbitrap Q-Exactive HF instrument equipped with a nano-electrospray source (Thermo Scientific Inc., San Jose, CA)[67]. The peptide samples were loaded to a C18 trapping column (75 μm i.d. × 2 cm, Acclaim PepMap® 100 particles with 3 μm size and 100 Å pores) and then eluted using a C18 analytical column (75 μm i.d. × 25 cm, 2 μm particles with 100 Å pore size). […] All MS/MS samples were analyzed using Mascot Daemon (Matrix Science, London, UK; version 2.4.0). […]

[2] = test system: PEPR1^ECD-MIK2^TK/pepr1,2 transgenic seedlings; assay: Root growth assay, PEPR1^ECD-MIK2^TK/pepr1,2 seedlings; assay type: in vivo, Arabidopsis thaliana; settings: PEPR1^ECD-MIK2^TK/pepr1,2 compared to WT
Description: The BAK1 (AT4G33430), SERK4 (AT2G13790), BIK1 (AT2G39660), and MIK2 (AT4G08850) coding sequences (CDSs) were amplified by PCR from Col-0 cDNA using the primers containing BamHI at the 5′ end and StuI at the 3′ end. The PCR products were digested by BamHI and StuI, followed by ligation into the pHBT-FLAG or pHBT-HA vector to generate pHBT-35S::BAK1-FLAG, pHBT-35S::SERK4-FLAG, pHBT-35S::BIK1-HA, pHBT-35S::MIK2-HA, and pHBT-35S::MIK2-GFP constructs[24],[41],[62]. MIK2^ECD (residues 1–707) and BAK1^ECD (residues 1–220) were amplified by PCR from Col-0 cDNA and cloned into pFastBac-1 vector with a C-terminal 6× HIS tag[25],[62]. The fusion protein vectors carrying MIK2^ECD or BAK1^ECD were used for insect cell expression. To obtain the binary vector pCAMBIA1300-35S::RLK7, a 2907-bp RLK7 CDS was PCR-amplified from WT cDNA using gene-specific primers with KpnI and SalI at the 5′ and 3′ ends, respectively, followed by KpnI and SalI digestion and ligation into the pCAMBIA1300 vector. […]
Cold stratified seeds were surface-sterilized with 70% (v/v) ethanol for 5 min and were sown on ½MS plates with or without peptides at indicated concentrations. Ten-day-old seedlings grown on plates vertically in a growth chamber were photographed, and the root lengths of seedlings were measured using Image J (http://rsb.info.nih.gov/ij/).

[3] = test system: mik2-1 and mik2-2 mutant seedlings; assay type: in vivo, Arabidopsis thaliana; settings: in vivo
[4] = target: T1, MIK2^ECD, extracellular LRR domain of MALE DISCOVERER 1-INTERACTING RECEPTOR-LIKE KINASE 2 (Arabidopsis thaliana, UniProt Q8VZG8 44-707); assay: SPR; settings: both partners purified
T1 construct: also called MIK2^ECD-6×HIS
T1 sequence (looked up): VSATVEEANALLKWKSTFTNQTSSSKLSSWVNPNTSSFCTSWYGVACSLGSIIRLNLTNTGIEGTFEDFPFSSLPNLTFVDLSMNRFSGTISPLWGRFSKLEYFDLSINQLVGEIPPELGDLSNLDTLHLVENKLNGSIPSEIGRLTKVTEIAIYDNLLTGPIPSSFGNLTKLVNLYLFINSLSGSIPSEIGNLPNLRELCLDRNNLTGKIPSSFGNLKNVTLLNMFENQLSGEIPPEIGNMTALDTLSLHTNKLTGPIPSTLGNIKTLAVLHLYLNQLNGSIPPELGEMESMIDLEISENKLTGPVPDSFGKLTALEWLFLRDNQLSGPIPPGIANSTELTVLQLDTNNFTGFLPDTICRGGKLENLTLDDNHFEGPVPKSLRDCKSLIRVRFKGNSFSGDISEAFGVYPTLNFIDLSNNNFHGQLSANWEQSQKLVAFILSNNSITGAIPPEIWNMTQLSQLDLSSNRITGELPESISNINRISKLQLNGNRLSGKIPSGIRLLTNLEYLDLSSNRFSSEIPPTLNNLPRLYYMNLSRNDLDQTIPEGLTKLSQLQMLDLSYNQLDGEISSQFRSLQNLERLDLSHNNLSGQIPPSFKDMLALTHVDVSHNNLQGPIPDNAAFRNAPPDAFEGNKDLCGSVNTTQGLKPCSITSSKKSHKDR

[5] = target: T1, MIK2^ECD, extracellular LRR domain of …; assay: ITC; MicroCal ITC200, 25 °C, 200 mM HEPES pH 7.0, 100 mM NaCl; 600 µM peptide injected into 30 µM MIK2^ECD in the cell; settings: both partners purified

HIS-SCOOP12: recombinant HIS-SCOOP12 proteins expressed in E. coli (LMGSGASGPVRSSQSSQAGGRFNDADPIAIDYGKY; also: His tag (not in given chain); UniProt B3H7I1 44-78, looked up)
proteolytic processing by Arabidopsis protein extracts ([1]; 5 μg HIS-SCOOP12, seedling extract, 5 h, room temperature, pH 7.4): proteolytically processed upon incubation with Arabidopsis protein extracts
cleavage site ([1]; Nano-LC-MS/MS): cleaved after arginine 43 (R^43)
identified SCOOP12 fragment ([1]; Nano-LC-MS/MS, in-gel Lys-C digestion): from leucine 44 (L^44) to lysine 78 (Y^78)

ATKVKAKQRGKEKVSSGRPGQHN [Pep1, plant endogenous peptide recognized by PEPR1/PEPR2]
brown roots and darkened root-hypocotyl junctions [2]: brown roots, and darkened root-hypocotyl junctions
root growth retardation [2]: severe root growth retardation
response of mik2-1 to Pep1 [3]: responded to the Pep1 treatment similarly to WT plants

B1: SCOOP12 peptide (SERINE-RICH ENDOGENOUS PEPTIDE 12) (peptide)
chain: PVRSSQSSQAGGR
modifications: Synthetic peptide, unlabelled in ITC/SPR; an N-terminal TAMRA version was used for in vivo binding. Exact limits are in Supplementary Data 4 (not shown). Limits taken as the commonly used 13-mer …
Kd [4]: 1.78 µM
Kd [5]: 3.18 µM
stoichiometry N [5]: ~1

B2: SCOOP12^SS/AA peptide (peptide)
chain: PVRSAQASQAGGR
modifications: Synthetic peptide. Exact limits are in Supplementary Data 4 (not shown); same conventional 13-mer as m1, with both SxS-motif serines changed to alanine.
Kd [4]: 3480 µM
